Test results reported in patent US20240041796A1, “ANTI-INFLAMMATORY COMPOSITION COMPRISING N-BENZYL-N-METHYLDECAN-1-AMINE OR A DERIVATIVE THEREOF AS AN ACTIVE INGREDIENT” (PUSAN NATIONAL UNIVERSITY INDUSTRY-UNIVERSITY COOPERATION …, priority 2022, published 2024).

Key:
Balb/C mice = assay: DNCB-induced atopic dermatitis model, cosmetic cream applied to the skin; type: in vivo, mouse; conditions: for DNCB-induced atopic dermatitis (level of dermatitis): cosmetic cream (0.3% active; Lidomax ointment 0.15%) applied to the back for 2 weeks, 9C; for DNCB-induced atopic dermatitis (level of dermatitis) / hair regrowth on the skin: FIG. 9A; for size of the (inguinal) lymph node: cosmetic cream (Lidomax ointment 0.15%) applied for 2 weeks, FIG. 9B, 9D; for hair regrowth on the skin: cosmetic cream applied for 2 weeks; for thickness of the dermis: hematoxylin-eosin stained skin sections, FIG. 10A-B; for phosphorylation level of JNK in skin / phosphorylation level of NF-KB in skin / phosphorylation level of p38MAPK in skin: immunoblotting, FIG. 11D; for phosphorylation level of JNK in skin / phosphorylation level of NF-KB in skin / phosphorylation level of p38MAPK in skin / concentration of IgE in the blood: vs control group; for amount of COX2 transcriptome in skin / amount of IL-1β transcriptome in skin / amount of IL-6 transcriptome in skin / amount of TNF-α transcriptome in skin / amount of iNOS transcriptome in skin: qRT-PCR, vs DNCB control, FIG. 11A-C; for concentration of IgE in the blood: serum ELISA, 2 weeks of treatment, FIG. 10D; for invasion of mast cells into the dermis: toluidine-blue staining, FIG. 10C
Method: Wed added 0.3 g of olive wax to 2 mL of soybean oil (Sigma-Aldrich) in a glass tube (15 ml), and put the tube in a 75° C. water-bath, and performed a double boiling thereon to melt the olive wax for 30 minutes while vortexing the tube at 10 minute interval. Under the same conditions, 7.7 ml of purified water was put into a 75° C. water-bath and heated the same for 30 minutes. Next, 7.5 ml of purified water was poured into the tube containing the olive wax and the mixture was stirred well via vortexing. Then, […] (0.3%) of each of BMDA and derivatives thereof (FMJ-G0, FMJ-G4, FMJ-G1, FMJ-G2, FMJ-G3) as synthesized in Examples 1 and 3 were added to the mixture, followed by stirring. The reaction product was cooled in ice and prepared in the form of a cosmetic cream.
In order to induce atopic dermatitis using 5-week-old Balb/C mice, hair on the back of the mouse was removed therefrom, and after one day, a 0.5% solution in which DNCB (2,4-dinitrochlorobenzne) is mixed with acetone and olive oil (3:1) was prepared, and then was applied thereon for 3 consecutive days by 150 μL per each day. Thereafter, the solution of the same concentration was applied to the back area from which the hair was removed twice a week and this process continued for 2 weeks. Further, to alleviate atopic dermatitis induced in this way, the cosmetic cream containing each of BMDA (FMJ-G0) and the derivatives thereof (FMJ-G4, FMJ-G1, FMJ-G2, FMJ-G3) of the present disclosure as prepared above was applied to the back of rats with the induced atopic dermatitis for 2 weeks, and then, changes in skin inflammation were examined.
The experimental results of FIG. 10A and FIG. 10B was obtained as follows as in FIG. 9. The skin tissue was removed from the back of the mouse in the group, and was placed fixedly in 10% formaldehyde for 48 hours, and paraffin pieces were made, and the pieces were thinly sliced so as to have a thickness of 4 μm and was subjected to hematoxylin-esoin staining. Then, whether the damaged skin tissue was recovered by each of BMDA (FMJ-G0) and DMMA (FMJ-G4) was examined using an optical microscope equipped with a Leica application (Leica Microsystems, Switzerland).
To this end, the atopic dermatitis is induced in FIG. 9, and on 2 weeks since the treatment with BMDA (FMJ-G0) and DMMA (FMJ-G4), blood (500 ul) is collected from the hepatic veins of the rats of the above groups, and left at room temperature for 30 minutes. Then, serum was separated and prepared via centrifugation, and then, the IgE concentration related to the allergic reaction was measured through ELISA using the serum thus prepared.
Anti-mouse IgE (Pharmingen, CA, USA) was diluted with PBS (pH 7.4) on a 96-well plate, 100 μL thereof was coated on each 96-well plate, and then left at 4° C. for 12 hours. The plate was washed with PBS containing 0.05% tween. Blocking was performed thereon for 1 hour with PBS containing 1% BSA, 5% sucrose, and 0.05% NaN3. Washing was performed thereon several times using washing buffer. Recombinant IgE and serum were added thereto, and reaction occurred at 37° C. for 2 hours, and each well was washed again, and biotinylated IgE (Pharmingen, CA, USA) was added thereto. Reaction occurred for 2 hours. After washing the well, avidin peroxidase was added thereto and reaction occurred at 37° C. for 30 minutes. Then, the well was washed and then, ABTS solution as a substrate was added thereto. Absorbance was measured at 405 nm using ELISA reader (Epoch2, Biotek, VT, USA).
FIG. 11 show data obtained as follows. The atopic dermatitis was induced as described in FIG. 9, and on 2 weeks since the treatment with BMDA or DMMA (FMJ-G0/G4), a portion of the skin tissue of the rats in the groups were put in Trisol solution and the tissue was crushed in a sonicator. […]

[1] = test system: human THP-1 monocytic cell line; assay: LPS-induced inflammation-related signal transduction in THP-1 cells, immunoblotting; type: cell-based; conditions: THP-1 cultured 3 hours with compound, then LPS 1 μg/ml 1 hour; FIG. 2A-B
Method: Each of BMDA (FMJ-G0) or DMMA (FMJ-G4) was added to a culture medium at concentrations of […], and 1 μM in a 6-well plate. The human THP-1 monocytic cell line (5×10^5 cells/well) was cultured therein for 3 hours. Each well was treated with lipopolysaccharide at a concentration of 1 μg/ml. After 1 hour, centrifugation was performed to obtain a supernatant which was used in an ELISA for inflammatory cytokine evaluation. Cell lysate was added to the collected THP-1 cells for immunoblotting.

NF-KB P65 protein = assay: NF-KB P65 distribution in cytoplasm and nucleus of LPS-treated THP-1 cells, immunoblotting; type: cell-based, human; conditions: FIG. 2D
From the text: Moreover, the mononuclear THP-1 cell line treated with lipopolysaccharide (LPS) and BMDA/DMMA under the same conditions was partitioned into cytoplasmic and nuclear portions. Distribution of NF-KB P65 protein in the cytoplasm and nucleus was examined based on immunoblotting.

DBA/J1 male mice = assay: Serum AST and ALT activity (hepatotoxicity indicators) in the collagen-induced rheumatoid arthritis model; type: in vivo, mouse; conditions: oral administration for 3 weeks; FIG. 7
Method: In one example, BMDA (FMJ-G0) and a derivative thereof (DMMA, FMJ-G4) at a concentration of 2.5 mg/mL were orally administered to male mice in a volume of 200 μL (20 mg/body weight Kg) for 21 days. In a control group, soybean oil was orally administered thereto.
During the experiment, the insteps of the forelimbs and hindlimbs were measured with a caliper three times a week, and the mice were suffocated, and joint areas were prepared for immunohistochemical staining and immunoblotting. Moreover, the spleen was removed therefrom and a size thereof was measured. Further, blood was drawn through the hepatic portal vein to prepare serum. A specific method was as follows. • 1) Paraffin sections were prepared as the joints including the ankles of the forelimbs. At this time, decalcification is performed first, followed by sectioning the same at a thickness of 4 μm, and H&E staining. • 2) The cell lysis solution was added thereto, and then we crushed the tissue with a sonicator, which was prepared for immunoblotting. • 3) Trisol solution was added to the joint tissue, the tissue was pulverized in a sonicator, and centrifuged, and the Trisol solution was used to precipitate proteins and DNA for entire RNA separation, and the entire RNA was collected from the supernatant obtained via the centrifugation. c-DNA was synthesized using oligo-dT primer and reverse transcriptase, and then, quantitative qRT-PCR and immunoblotting were performed thereon.

Row | Compound | DNCB-induced atopic dermatitis (level of dermatitis) (Balb/C mice) | size of the (inguinal) lymph node (Balb/C mice) | hair regrowth on the skin (Balb/C mice) | thickness of the dermis (Balb/C mice) | phosphorylation level of JNK in skin (Balb/C mice) | phosphorylation level of NF-KB in skin (Balb/C mice) | phosphorylation level of p38MAPK in skin (Balb/C mice) | amount of COX2 transcriptome in skin (Balb/C mice) | amount of IL-1β transcriptome in skin (Balb/C mice) | amount of IL-6 transcriptome in skin (Balb/C mice) | amount of TNF-α transcriptome in skin (Balb/C mice) | amount of iNOS transcriptome in skin (Balb/C mice) | concentration of IgE in the blood (Balb/C mice) | invasion of mast cells into the dermis (Balb/C mice) | activity of JNK activated by LPS [1] | activity of p38 MAPK activated by LPS [1] | inflammation-related signaling pathway leading to p38 MAPK-MK2 [1] | NF-KB expression and migration in the nucleus (NF-KB P65 protein) | activity of the transcription factor NF-KB (NF-KB P65 protein) | activity of ALT enzyme in serum (DBA/J1 male mice) | further results
1 | CCCCCCCCCCN(C)Cc1ccccc1 [BMDA, N-benzyl-N-methyldecan-1-amine] | significantly alleviated | the same as that of the spleen | observed | significantly reduced | significantly lowered | significantly lowered | significantly lowered | markedly lowered | markedly lowered | markedly lowered | markedly lowered | markedly lowered | significantly lower | prevents | suppressed | suppressed | inhibited | inhibited | inhibited | did not increase | activity of AST enzyme in serum (DBA/J1 male mice): did not increase
2 | CCCCCCCCCCN(C)Cc1ccc(OC)cc1 [DMMA, Decyl-(4-methoxy-benzyl)-methyl-amine] | significantly alleviated | the same as that of the spleen | observed | significantly reduced | significantly lowered | significantly lowered | significantly lowered | markedly lowered | markedly lowered | markedly lowered | markedly lowered | markedly lowered | significantly lower | prevents | suppressed | suppressed | inhibited | inhibited | inhibited | did not increase | activity of AST enzyme in serum (DBA/J1 male mice): did not increase
